Results: patent US20060190192A1, “Databases for assessing nucleic acids” (Medical College of Ohio, priority 2005, published 2006)

Experiments:
[1] = test system: cytochrome p450 (CYP) IAI gene; test: MC RT-PCR with Celi competitive templates: induction of CYPIAI gene expression in β-napthoflavone-exposed BEP2D cells; assay type: cell-based, human; conditions: β-napthoflavone 10 μM, control 0.1% DMSO, cDNA loading matched by GAPDH native/competitive template bands
Method: (§1) In a second set of experiments, multiplex competitive reverse transcriptase polymerase chain reaction (MC RT-PCR) with competitive templates were prepared by the Celi method to evaluate the cytochrome p450 (CYP) IAI gene in β-napthoflavone-exposed BEP2D cells. The induction of CYPIAI gene expression was evaluated using both MC RT-PCR with Celi competitive templates, and Northern analysis. Competitive templates were prepared for both the CYPIAI and GAPDH genes. The primers used to prepare the competitive template for GAPDH were: […]
The PCR amplification conditions were the same as described for experiments using the competitive templates prepared for GAPDH and GSHPx by the Higuchi method except the annealing temperature was 55 degrees centigrade and the amplification was carried out for 38 cycles.
Because the native and competitive templates separate without prior restriction endonuclease digestion, samples were taken directly from the PCR reaction tube and applied to ethidium bromide stained 3% Nusieve, 1% LE agarose gels. It was then possible to quantify the products by taking a negative photograph of the gel using Polaroid 665 positive/negative instant film, subjecting the negative photograph to densitometry. […]

[2] = test system: cytochrome p450 (CYP) IAI gene; test: Northern analysis of CYPIAI gene expression in β-napthoflavone-exposed BEP2D cells; assay type: cell-based, human; conditions: β-napthoflavone 10 μM vs 0.1% DMSO control, 32P-labeled CYPIAI cDNA probe
Method: as §1
RNA from BEP2D cells incubated for varying times with β-napthoflavone (10 μM) was either electrophoresed on a 1% LE formaldehyde denaturing gel for Northern analysis or MC RT-PCR amplified, as described above. For Northern analysis, following transfer of the RNA to GeneScreen, the filters were hybridized with ^32P-labeled CYPIAI cDNA.
FIG. 36A illustrates Northern analysis of RNA obtained from BEP2D cells that were treated with 0.1% DMSO as a control, or, β-napthoflavone in an effort to induce cytochrome p450 IA1 (CYPIA1). FIG. 36B illustrates DNA PCR-amplified from serial dilutions of cDNA from the same cells used in FIG. 36SA. The cDNA was co-amplified in the presence of competitive templates for GAPDH and CYPIAI, according to some embodiments of the instant invention.

For O=c1cc(-c2ccccc2)oc2ccc3ccccc3c12 [β-napthoflavone], which “band representing the native CYPIAI gene, exposed cells compared to control cells” value [1] is on record?
The value was “much more strongly represented”.

What about the “gene expression of the CYPIAI gene” value [2] of the same molecule?
The value was “increase”.
